Marks after values point to notes of the source that are not given here.
Key:
[1] = Acute toxicity study (LD50); settings: both, outbred white, mouse, in vivo, ip
Method: We studied the acute toxicity of compound F1 in vivo. The experiments were carried out on outbred white mice of both sexes weighing 18-20 g (24 pcs.). The animals were divided into groups of 12 mice each. The compound was dissolved in DMSO and then adjusted to the desired concentration with 0.9% NaCl solution and administered intraperitoneally and subcutaneously in a dose range from 5.0 to 200.0 mg/kg. […] The maximum relative error of the applied dose was no more than 5%.
We studied the acute toxicity of compound F2 in vivo. The experiments were carried out on outbred white mice of both sexes weighing 18-20 g (24 pcs.). The animals were divided into groups of 12 mice each. The compound was dissolved in DMSO and then brought to the desired concentration with 0.9% NaCl solution and administered intraperitoneally and subcutaneously to animals in a dose range from 5.0 to 200.0 mg/kg. […] The maximum relative error of the administered dose was no more than 5%.

[2] = test system: blood of patients with leukemia (combined group); experiment: Hemogram of blood of patients with leukemia (combined group) after exposure; assay type: cell-based; settings: 10 µg/ml, 3 hours, 37.0°C
Excerpt: (§2) The effect of compounds F1 and F2 was studied on biological material (blood) of patients with hematological malignancies (leukemia), as well as for individual nosologies, in particular, patients with leukemia (combined group) (n=224), T-ALL (n=84), B-ALL (n=100), ALL (n=100), AML (n= 98), AML (n=94) and AML (n= 98) were studied. A total of 798 blood samples from patients with leukemia were examined.
(§3) The drugs Cytosar (Alexan) (Ebewe Pharma, Austria) and doxorubicin (Naprod, Mumbai, India) recommended by WHO for the treatment of the above oncohematological diseases were used as comparison drugs.
(§4) 5 ml of venous blood from sick and conditionally healthy individuals were collected into Vacutainer tubes with the addition of EDTA (Himedia, India).
(§5) The resulting blood was divided into aliquots of 1 ml and 10 µl (10 µg/ml) of the studied drugs (cytosar, doxorubicin, F1 and F2) were added to each tube.

[3] = test system: blood of patients with T-ALL; experiment: Hemogram of blood of patients with T-ALL after exposure; assay type: cell-based; settings: 10 µg/ml, 3 hours, 37.0°C
Excerpt: as §2, §3, §4, §5

[4] = test system: blood of patients with B-ALL; experiment: Hemogram of blood of patients with B-ALL after exposure; assay type: cell-based; settings: 10 µg/ml, 3 hours, 37.0°C
Method: A total of 798 blood samples from patients with leukemia were examined.
as §3, §4, §5

[5] = test system: blood of patients with ALL; experiment: Hemogram of blood of patients with ALL after exposure; assay type: cell-based; settings: 10 µg/ml, 3 hours, 37.0°C
Method: as §2, §4, §5

[6] = test system: blood of patients with AML; experiment: Hemogram of blood of patients with AML after exposure (Example 12, Table 9); assay type: cell-based; settings: AML (Table 9); 10 µg/ml; 3 hours, 37.0°C
Method: as §3, §4, §5

[7] = test system: blood of patients with AML; experiment: Hemogram of blood of patients with AML after exposure (Example 13, Table 10; also OMML); assay type: cell-based; settings: AML (Table 10); 10 µg/ml; 3 hours, 37.0°C
Method: as §3, §4, §5

[8] = test system: blood of patients with AML; experiment: Hemogram of blood of patients with AML after exposure (Example 14, Table 11); assay type: cell-based; settings: AML (Table 11); 10 µg/ml; 3 hours, 37.0°C
Excerpt: as §2, §3, §4, §5

[9] = test system: blood of conditionally healthy individuals; experiment: Hemogram of blood of conditionally healthy individuals after exposure to the drugs; settings: 10 µg/ml, 3 hours, 37.0°C
Method: as §4, §5

[10] = test system: CCRF-CEM (CCL-119) (T-lymphoblastic leukemia); experiment: MTT cytotoxicity on CCRF-CEM cells; assay type: cell-based; settings: 24 hours
Method: (§1) The cytotoxic properties of the compounds were determined in vitro using the MTT method in 96-well plates (Costar, USA). […] Rat liver hepatocytes were obtained according to the method, human blood mononuclear cells - according to [23]. Fibroblast cells were obtained according to the method of [24] with some modifications. Cell cultures were subcultured into 96-well plates according to the method of [21] by adding 100 μl of nutrient medium. The CCRF-CEM suspension culture was poured into a tube, centrifuged at 800 rpm for 10 minutes, and the supernatant was discarded. […] Data obtained in 3 independent experiments were expressed as the mean value for each concentration ± standard error of the mean, relative to the control values (cells without test compounds). The cytotoxic effect of each of the studied compounds was compared with the effect of the cytostatic Cisplatin-Naprod (India), containing cisplatin as an active component. Table 1: IC50 μM value for test compounds

fibroblasts = experiment: MTT cytotoxicity on fibroblasts; assay type: cell-based; settings: 24 hours
Method: as §1

Rat liver hepatocytes = experiment: MTT cytotoxicity on hepatocytes; assay type: cell-based; settings: 24 hours
Method: as §1

## COc1cccc2c1C(=O)c1c(O)c3c(c(O)c1C2=O)C[C@@](O)(C(=O)CO)C[C@@H]3O[C@H]1C[C@H](N)[C@H](O)[C@H](C)O1 [Doxorubicin, doxorubicin, reference compound]
[1]
  LD50 at 1 week: 10.8 mg/kg
[2]
  Band (s/n) neutrophils: 1,8±0,5%
  Blasts: 65,6±2,6 %
  Destroyed cells: 11,4±2,2 %
  Eosinophils: 3,8±2,4%
  Lymphocytes: 15,0±1,8%
  Monocytes: 5,3±1,2%
  Myelocytes: 3,3±1,2%
  Promyelocytes: 0,0±0,000%
  Segmented (s/i) neutrophils: 5,8±0,7%
[3]
  Band (s/n) neutrophils: 1,2±0,1 %
  Blasts: 67,2±0,9 %
  Destroyed cells: 13,4±0,5 %
  Eosinophils: 0,0±0,0%
  Lymphocytes: 9,8±0,1 %
  Monocytes: 1.7±0,2%
  Myelocytes: 0,0±0,0%
  Promyelocytes: 0,0±0,0%
  Segmented (s/i) neutrophils: 6,7±0,4%
[4]
  Band (s/n) neutrophils: 0,7±0,2%
  Blasts: 64,3±3,7%
  Destroyed cells: 13,0±2,8 %
  Eosinophils: 0,1±0,1%
  Lymphocytes: 15,0±2,9%
  Monocytes: 1.6±0,5%
  Myelocytes: 0,6±0,3%
  Promyelocytes: 0,0±0,0%
  Segmented (s/i) neutrophils: 4,9±0,9%
[5]
  Band (s/n) neutrophils: 0,3±0,1%
  Blasts: 76,4±1,7 %
  Destroyed cells: 9,0±1,1*^ %
  Eosinophils: 0,2±0,1%
  Lymphocytes: 9,9±1,3%
  Monocytes: 1.9±0,6%
  Myelocytes: 0,2±0,1%
  Promyelocytes: 0,0±0,0%
  Segmented (s/i) neutrophils: 2,2±0,3%
[6]
  Band (s/n) neutrophils: 0,5±0,4%
  Blasts: 68,4±3,6 %
  Destroyed cells: 5,6±1,4 %
  Eosinophils: 0,8±0,7%
  Lymphocytes: 13,2±2,4%
  Monocytes: 5.2±1,5%
  Myelocytes: 0,9±0,8%
  Promyelocytes: 0,0±0,0%
  Segmented (s/i) neutrophils: 5,5±1,2%
[7]
  Band (s/n) neutrophils: 3,4±0,5%
  Blasts: 58,4±1,9%
  Destroyed cells: 15,1±1,1 %
  Eosinophils: 0,7±0,3%
  Lymphocytes: 6,1±0,7%
  Monocytes: 1.6±0,3 %
  Myelocytes: 4,0±0,4 %
  Promyelocytes: 0,0±0,0%
  Segmented (s/i) neutrophils: 10,8±1,0%
[8]
  Band (s/n) neutrophils: 0,8±0,2%
  Blasts: 45,4±1,9 %
  Destroyed cells: 24,0±4,0 %
  Eosinophils: 0,0±0,0%
  Lymphocytes: 9,7±1,5%
  Monocytes: 11.2±2,3 %
  Myelocytes: 0,0±0,0%
  Promyelocytes: 0,0±0,0%
  Segmented (s/i) neutrophils: 9,1±1,5%
[9]
  Band (s/n) neutrophils: 1,5±0,2%
  Blasts: 0,0±0,0%
  Destroyed cells: 0,0±0,0%
  Eosinophils: 1,7±0,2%
  Lymphocytes: 28,1±0,9%
  Monocytes: 6,1±0,4%
  Myelocytes: 0,0±0,0%
  Promyelocytes: 0,0±0,0%
  Segmented (s/i) neutrophils: 62,6±1,0%

## N.N.[Cl][Pt][Cl] [Cisplatin, cisplatin, reference compound]
[10]
  IC50: 12.4 µM
fibroblasts
  IC50: 29.4 µM
Rat liver hepatocytes
  IC50: 28.7 µM

## Nc1ccn([C@@H]2O[C@H](CO)[C@@H](O)[C@@H]2O)c(=O)n1 [Cytosar, cytarabine, reference compound]
[2]
  Band (s/n) neutrophils: 1,1±0,4 %
  Blasts: 65,9±2,8 %
  Destroyed cells: 9,0±1,6 %
  Eosinophils: 0,4±0,3%
  Lymphocytes: 13,7±1,6%
  Monocytes: 3,5±0,6 %
  Myelocytes: 1,1±0,3 %
  Promyelocytes: 0,2±0,1%
  Segmented (s/i) neutrophils: 6,7±1,1%
[3]
  Band (s/n) neutrophils: 1,0±0,1%
  Blasts: 73,5±2,0 %
  Destroyed cells: 8,8±1,0 %
  Eosinophils: 0,0±0,0%
  Lymphocytes: 11,5±1,0 %
  Monocytes: 2,3±0,4%
  Myelocytes: 0,0±0,0%
  Promyelocytes: 0,0±0,000%
  Segmented (s/i) neutrophils: 3,0±0,4 %
[4]
  Band (s/n) neutrophils: 0,6±0,3%
  Blasts: 63,5±3,4 %
  Destroyed cells: 8,9±2,2 %
  Eosinophils: 0,1±0,1%
  Lymphocytes: 17,2±2,0%
  Monocytes: 4,6±1,2%
  Myelocytes: 0,7±0,4%
  Promyelocytes: 0,0±0,0%
  Segmented (s/i) neutrophils: 6,1±0,9%
[5]
  Band (s/n) neutrophils: 0,4±0,2%
  Blasts: 78,7±1,4 %
  Destroyed cells: 4,8±1,4 %
  Eosinophils: 0,0±0,0%
  Lymphocytes: 11,4±0,8%
  Monocytes: 2,2±0,4%
  Myelocytes: 0,2±0,1%
  Promyelocytes: 0,0±0,0%
  Segmented (s/i) neutrophils: 2,4±0,6%
[6]
  Band (s/n) neutrophils: 1,2±0,5%
  Blasts: 65,4±3,9 %
  Destroyed cells: 6,3±1,7 %
  Eosinophils: 1,0±0,9%
  Lymphocytes: 12,5±1,7%
  Monocytes: 3,4±0,8%
  Myelocytes: 1,4±0,6%
  Promyelocytes: 0,9±0,6%
  Segmented (s/i) neutrophils: 5,6±1,2%
[7]
  Band (s/n) neutrophils: 3,6±0,5%
  Blasts: 50,2±2,8%
  Destroyed cells: 7,8±0,6 %
  Eosinophils: 0,6±0,3%
  Lymphocytes: 6,6±0,7%
  Monocytes: 1,2±0,2 %
  Myelocytes: 16,0±1,4 %
  Promyelocytes: 0,0±0,0%
  Segmented (s/i) neutrophils: 14,1±1,2 %
[8]
  Band (s/n) neutrophils: 3,5±1,0 %
  Blasts: 59,5±3,7 %
  Destroyed cells: 12,4±1,7 %
  Eosinophils: 4,0±0,2%
  Lymphocytes: 8,4 ±0,9%
  Monocytes: 4,9±1,2 %
  Myelocytes: 1,8±0,4%
  Promyelocytes: 0,0±0,0%
  Segmented (s/i) neutrophils: 9,2±2,3%
[9]
  Band (s/n) neutrophils: 1,8±0,2 %
  Blasts: 0,0±0,0%
  Destroyed cells: 0,0±0,0%
  Eosinophils: 2,1±0,4%
  Lymphocytes: 28,0±1,2%
  Monocytes: 6,6±0,4 %
  Myelocytes: 0,0±0,0%
  Promyelocytes: 0,0±0,0%
  Segmented (s/i) neutrophils: 61,5±1,2%

Reference: patent publication EP4506003A1, “HALOGEN DERIVATIVES OF (4´,5´- METHYLENEDIOXYPHENYL)-6,7-DIMETHOXY-1,2,3,4-TETRAHYDROISOQUINOLINE FOR USE IN THE TREATMENT OF LEUKEMIA” (S.Yu Yunusov Institute of Chemistry of Plant Substances of …, priority 2023, dated 2025)
